The source made the active and inactive calls.
What was measured:
[1] = system: Vero; test: cells; format: functional; settings: Chlorocebus sabaeus
[2] = biological target: T1, Kappa-type opioid receptor (Homo sapiens, UniProt P41145); format: functional
[3] = biological target: T1, Kappa-type opioid receptor; format: functional; remark: listed apart in the source
[4] = biological target: Beta-galactosidase (Escherichia coli, UniProt Q8VNN2); format: functional
[5] = biological target: T2, Short transient receptor potential channel 4 (Mus musculus, UniProt Q9QUQ5); test: block of DAMGO-driven TRPC4 calcium entry – cell-based, HEK293 TRPC4/mu-opioid, Fluo-4 calcium, dose response (AID 434942); format: functional;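 note: potency of inhibitors blocking the TRPC4 calcium response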
T2 sequence (Q9QUQ5 whole entry): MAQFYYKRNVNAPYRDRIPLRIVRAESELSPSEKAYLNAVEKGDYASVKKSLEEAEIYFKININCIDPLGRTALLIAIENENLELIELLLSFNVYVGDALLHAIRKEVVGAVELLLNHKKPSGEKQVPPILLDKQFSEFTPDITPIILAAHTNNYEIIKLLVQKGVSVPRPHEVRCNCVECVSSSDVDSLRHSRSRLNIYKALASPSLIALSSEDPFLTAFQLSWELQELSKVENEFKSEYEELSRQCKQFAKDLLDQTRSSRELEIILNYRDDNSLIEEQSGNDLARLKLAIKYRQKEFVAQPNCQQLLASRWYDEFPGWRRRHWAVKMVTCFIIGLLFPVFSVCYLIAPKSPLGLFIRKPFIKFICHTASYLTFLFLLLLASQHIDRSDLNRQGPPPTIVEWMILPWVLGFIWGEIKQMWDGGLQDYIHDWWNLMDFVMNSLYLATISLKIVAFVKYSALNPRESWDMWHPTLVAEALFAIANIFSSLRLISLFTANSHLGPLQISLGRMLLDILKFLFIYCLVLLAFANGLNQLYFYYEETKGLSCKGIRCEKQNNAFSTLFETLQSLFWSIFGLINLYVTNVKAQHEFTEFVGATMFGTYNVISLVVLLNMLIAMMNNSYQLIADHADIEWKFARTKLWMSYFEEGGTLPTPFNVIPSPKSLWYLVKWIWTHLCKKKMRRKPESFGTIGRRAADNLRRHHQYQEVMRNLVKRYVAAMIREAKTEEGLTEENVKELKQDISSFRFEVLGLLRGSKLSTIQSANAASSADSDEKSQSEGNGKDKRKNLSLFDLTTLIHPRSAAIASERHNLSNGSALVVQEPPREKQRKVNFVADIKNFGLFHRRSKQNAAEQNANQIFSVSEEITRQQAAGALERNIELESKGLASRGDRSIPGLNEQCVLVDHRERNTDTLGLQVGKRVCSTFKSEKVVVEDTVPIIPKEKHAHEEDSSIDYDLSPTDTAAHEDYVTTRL

[6] = THP-1 cell cytotoxicity, dose response, cytotoxicity control for non-replicating M. tuberculosis project (AID 489025); format: functional
[7] = biological target: T3, Protein skinhead-1 (Caenorhabditis elegans, UniProt P34707); format: functional
T3 sequence (P34707 whole entry): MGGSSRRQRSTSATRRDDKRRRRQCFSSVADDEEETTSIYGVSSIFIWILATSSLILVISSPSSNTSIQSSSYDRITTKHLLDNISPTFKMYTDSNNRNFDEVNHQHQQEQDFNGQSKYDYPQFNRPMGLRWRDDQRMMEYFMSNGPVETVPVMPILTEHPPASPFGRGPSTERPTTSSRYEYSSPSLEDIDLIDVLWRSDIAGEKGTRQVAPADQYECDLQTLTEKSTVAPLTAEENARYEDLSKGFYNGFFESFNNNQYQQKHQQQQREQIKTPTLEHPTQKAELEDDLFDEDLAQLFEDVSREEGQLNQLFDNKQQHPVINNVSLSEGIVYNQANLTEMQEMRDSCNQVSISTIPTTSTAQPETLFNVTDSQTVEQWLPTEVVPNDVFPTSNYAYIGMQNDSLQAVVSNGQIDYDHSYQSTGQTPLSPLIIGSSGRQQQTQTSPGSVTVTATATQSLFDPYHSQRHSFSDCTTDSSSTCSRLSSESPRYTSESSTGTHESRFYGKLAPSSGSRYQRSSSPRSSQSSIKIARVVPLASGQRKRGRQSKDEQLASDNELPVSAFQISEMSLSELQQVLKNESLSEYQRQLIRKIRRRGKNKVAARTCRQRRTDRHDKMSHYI

[8] = system: Vero; test: cells; format: functional, cell-based; settings: Chlorocebus sabaeus
[9] = reduced cellular PGC1a acetyl-lysine signal – cell-based, cherry-picked samples, dose response (AID 720514); format: functional;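 note: potency may reflect raised or lowered acetylation signal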
[10] = biological target: Melanocortin receptor 4 (Homo sapiens, UniProt P32245); format: functional, cell-based;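 note: Cell-based assay with luminescence read-out, confirmatory dose-response testing for agonist activity of biased ligands at MC4R; human U2OS cells with tagged receptor and beta-arrestin; potency of agonists that increase receptor coupling to beta-arrestin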
[11] = biological target: T4, Adenosylmethionine-8-amino-7-oxononanoate aminotransferase (Mycobacterium tuberculosis, UniProt P9WQ81); test: Mycobacterium tuberculosis BioA enzyme inhibitor Measured in Biochemical System Using Plate Reader - 2163-02_Inhibitor_Dose_CherryPick_Activity.; format: functional, Mycobacterium tuberculosis UT205
T4 sequence (P9WQ81 whole entry): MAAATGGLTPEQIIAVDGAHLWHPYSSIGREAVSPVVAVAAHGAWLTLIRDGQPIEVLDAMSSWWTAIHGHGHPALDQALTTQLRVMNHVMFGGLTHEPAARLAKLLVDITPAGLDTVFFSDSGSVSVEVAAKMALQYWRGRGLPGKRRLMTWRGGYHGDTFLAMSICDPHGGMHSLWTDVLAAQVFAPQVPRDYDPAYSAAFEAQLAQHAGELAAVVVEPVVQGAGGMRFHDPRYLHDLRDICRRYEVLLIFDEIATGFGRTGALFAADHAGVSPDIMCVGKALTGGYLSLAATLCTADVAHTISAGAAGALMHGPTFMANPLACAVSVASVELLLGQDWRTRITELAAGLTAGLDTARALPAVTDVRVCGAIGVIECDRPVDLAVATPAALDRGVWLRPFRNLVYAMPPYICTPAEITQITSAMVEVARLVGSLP

T1 sequence (P41145 whole entry): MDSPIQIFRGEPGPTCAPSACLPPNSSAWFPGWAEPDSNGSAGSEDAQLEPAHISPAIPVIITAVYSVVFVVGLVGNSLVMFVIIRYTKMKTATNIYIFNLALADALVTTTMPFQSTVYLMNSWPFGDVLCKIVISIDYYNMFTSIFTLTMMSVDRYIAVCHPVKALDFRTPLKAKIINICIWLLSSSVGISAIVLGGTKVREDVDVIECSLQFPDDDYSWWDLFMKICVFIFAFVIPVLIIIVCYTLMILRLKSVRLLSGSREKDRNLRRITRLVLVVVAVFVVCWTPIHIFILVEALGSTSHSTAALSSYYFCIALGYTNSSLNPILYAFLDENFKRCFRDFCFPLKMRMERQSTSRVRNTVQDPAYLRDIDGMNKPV
Chain of Beta-galactosidase (Q8VNN2 whole entry): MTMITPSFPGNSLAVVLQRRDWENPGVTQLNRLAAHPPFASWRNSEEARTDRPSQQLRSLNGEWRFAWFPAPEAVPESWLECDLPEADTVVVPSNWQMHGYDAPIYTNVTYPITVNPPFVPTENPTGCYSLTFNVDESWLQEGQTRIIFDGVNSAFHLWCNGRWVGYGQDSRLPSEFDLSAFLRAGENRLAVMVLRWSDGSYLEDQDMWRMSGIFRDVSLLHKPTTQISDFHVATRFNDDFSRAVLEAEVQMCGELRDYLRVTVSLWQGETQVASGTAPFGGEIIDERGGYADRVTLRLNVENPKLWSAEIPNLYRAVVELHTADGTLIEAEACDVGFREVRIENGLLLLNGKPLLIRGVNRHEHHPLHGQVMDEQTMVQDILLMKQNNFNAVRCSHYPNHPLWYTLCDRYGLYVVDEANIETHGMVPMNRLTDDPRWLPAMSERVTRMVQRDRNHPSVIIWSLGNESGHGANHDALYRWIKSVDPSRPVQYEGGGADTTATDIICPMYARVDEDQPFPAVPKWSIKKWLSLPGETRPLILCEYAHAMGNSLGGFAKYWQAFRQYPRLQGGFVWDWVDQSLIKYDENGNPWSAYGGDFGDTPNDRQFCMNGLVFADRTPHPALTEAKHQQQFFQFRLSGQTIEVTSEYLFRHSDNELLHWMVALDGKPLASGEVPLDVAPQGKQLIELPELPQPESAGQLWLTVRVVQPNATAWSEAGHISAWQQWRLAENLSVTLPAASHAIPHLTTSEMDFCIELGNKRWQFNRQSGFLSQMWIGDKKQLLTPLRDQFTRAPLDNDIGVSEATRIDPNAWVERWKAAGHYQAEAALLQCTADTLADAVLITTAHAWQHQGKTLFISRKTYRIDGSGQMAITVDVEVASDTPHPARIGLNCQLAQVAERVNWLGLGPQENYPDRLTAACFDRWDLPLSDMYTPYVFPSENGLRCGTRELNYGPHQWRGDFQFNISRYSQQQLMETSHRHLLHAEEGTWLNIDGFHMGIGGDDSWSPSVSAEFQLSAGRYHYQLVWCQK
Chain of Melanocortin receptor 4 (P32245 whole entry): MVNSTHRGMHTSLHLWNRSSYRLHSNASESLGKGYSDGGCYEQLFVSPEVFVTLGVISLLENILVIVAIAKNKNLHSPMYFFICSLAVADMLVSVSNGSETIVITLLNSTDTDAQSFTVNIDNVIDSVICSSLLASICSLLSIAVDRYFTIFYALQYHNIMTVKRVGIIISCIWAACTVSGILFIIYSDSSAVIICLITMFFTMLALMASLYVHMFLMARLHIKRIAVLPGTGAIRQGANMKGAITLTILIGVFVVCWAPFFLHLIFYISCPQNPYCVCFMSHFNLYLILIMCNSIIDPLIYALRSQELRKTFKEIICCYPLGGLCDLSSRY

For `Cc1nn(-c2ccccc2)c(O)c1/C=N/N1C(=O)c2cccc3cccc(c23)C1=O`, the CC50 [1] was > 25 µM (active), the IC50 [2] was over 32 µM and the IC50 [3] was 10.3 µM (active). The EC50 [4] was > 31.5 µM (inactive).
For `COc1cc(CNC2CCCC2)cc(Cl)c1OCc1ccc(F)cc1`, the EC50 [5] was 6.68 µM (active), the CC50 [6] was 19.8 µM (active) and the IC50 [7] was 3.33 µM (active).
In the case of `Cc1ccc(-n2ncc3c(SCc4ccccn4)ncnc32)c(C)c1`, the IC50 [8] is reported as 1.6 µM (active) and the CC50 [1] is reported as > 25 µM (active).
For `COc1ccc(-n2nc(C#N)c(Cl)cc2=O)cc1`, the AC50 [9] was 3.52 µM (active), the IC50 [2] was 14 µM and the IC50 [3] was 7.21 µM (active). The EC50 [4] was > 31.5 µM (inactive).
With `CCSc1nnc(NC(=O)c2csc3c2CCCC3)s1` the EC50 [10] was > 89.2 µM (inactive).
For `O=C(NCc1ccco1)c1ccc(-c2ccc3nccn3c2)cc1`, the AC50 [11] was 1.64 µM (active).
In the case of `CC(=O)Nc1cc(-c2cccc(NS(C)(=O)=O)c2)cn2c(-c3ccccc3)cnc12`, the EC50 [10] is reported as > 89.2 µM (inactive).

Source: ChEMBL document CHEMBL1201862, “PubChem BioAssay data set” (2004)
